Test results reported in ChEMBL document CHEMBL5532716, “UPLC-Q-TOF-MS/MS-Based Targeted Discovery of Chetomin Analogues from Chaetomium cochliodes” (J Nat Prod, 2024).

How the values were obtained:
A549 = assay: Cytotoxicity against human A549 cells assessed as inhibition of cell viability by MTT assay; type: functional, cell-based
HeLa = assay: Cytotoxicity against human HeLa cells assessed as inhibition of cell viability by MTT assay; type: functional, cell-based

Structure (SMILES)	IC50 (A549)	IC50 (HeLa)
CN1C(=O)[C@]2(Cc3c[nH]c4ccccc34)SSSS[C@@]1(CO)C(=O)N2C	2.2 µM	1.9 µM
CNC(=O)[C@@]12C[C@]3(n4cc(C[C@@]56SSSS[C@@](CO)(C(=O)N5C)N(C)C6=O)c5ccccc54)c4ccccc4N[C@@H]3N1C(=O)C(=O)N[C@H]2C	1.9 µM	1.6 µM
CS[C@@]12Cc3c([nH]c4ccccc34)[C@@](CO)(NC1=O)C(=O)N2	25 µM	25 µM
CS[C@@]1(CO)C(=O)N/C(=C\c2c[nH]c3ccccc23)C(=O)N1C	30 µM	30 µM
CN1C(=O)[C@]2(Cc3cn([C@]45C[C@@]67SS[C@@](CO)(C(=O)N6[C@H]4Nc4ccccc45)N(C)C7=O)c4ccccc34)SS[C@@]1(CO)C(=O)N2C [CHETOMIN]	3.5 µM	2.4 µM
CS[C@]1(CO)NC(=O)[C@](Cc2c[nH]c3ccccc23)(SC)NC1=O [CHETOSEMINUDIN C]	30 µM	33 µM
